Assay results published in patent US20130079274A1, “PHARMACEUTICAL COMPOSITIONS FOR TREATING DYSREGULATED INFLAMMATORY DISEASES” (priority 2009, published 2013).
Ends that are not written are not given here.

What was measured:
[1] = test system: CLP-induced polymicrobial sepsis; assay: Mortality after cecal ligation and puncture (CLP) polymicrobial sepsis; type: in vivo, C57BL/6-mice; settings: over 96 h
Source text: Maintenance and use of the animals were in accord with the German Animal Welfare Legislation. All experiments were approved by the local institutional animal care and research advisory committee and permitted by the local government of Lower Saxony (Germany). 47 male C57BL/6-mice (Charles River, Germany) with a weight of 20±3 g were used for the study. All animals were handled at room temperature for 14 days before treatment. Animals were maintained under standardized conditions with a controlled environment at 21±2° C., relative humidity of 50% and artificial light (14 hours light, 10 hours dark). They received a commercial pellet diet (altromin 1317) and water ad libitum. Analgetic treatment was performed in all animals (200 mg/kg body weight (BW) metamizol-sodium, Novalgin®, Hoechst, Unterschleiβheim, Germany) throughout the study.
All surgical procedures were performed after deeply anaesthetizing the animals with isoflurane. The mice were warmed to 36° C. using infrared warming lamps after having finished the surgical procedures. All mice received once daily subcutaneous injections of 1 ml sterile ringer's lactate for fluid replacement.
The surgical procedure was as follows: the cecum was exposed after a midline laparotomy and ligated distal to the ileocecal valve. Subsequently, the cecum was punctured twice using a 21 G needle and was returned to the abdominal cavity. […]

[2] = test system: CLP-induced polymicrobial sepsis; assay: Activity score after CLP; type: in vivo, C57BL/6-mice; settings: 4 μg/kg i.p. simultaneously to CLP, vs control
Experimental: The surgical procedure was as follows: the cecum was exposed after a midline laparotomy and ligated distal to the ileocecal valve. Subsequently, the cecum was punctured twice using a 21 G needle and was returned to the abdominal cavity. The model also includes the protrusion of contents of the cecum to assure the presence of bacteria in the peritoneum. The closure of the abdomen was performed with double layer sutures. Data were obtained 4, 24 and 96 hours after surgery. Clinical data concerning mortality and activity were obtained once daily until 96 hours after instrumentation.
As a measure for clinical status, activity of mice was analyzed by using a previously established scoring system, see table 1. Within this score, the spontaneous activity, spontaneous food intake and response to exogenous stimuli was analyzed. The scoring of each animal (from 1=moribund to 6=very active) was independently performed in a blinded fashion by two persons and the mean of both values was recorded.

sepsis-related mortality = settings: pretreatment four days before sepsis induction; cited from earlier work
peritoneal macrophages = assay: Cytokine and chemokine secretion of isolated peritoneal macrophages after CLP; settings: cells isolated 24 h after CLP, cultured 24 h; vs control, p>0.05
Experimental: The control group received saline as vehicle, the study group was substituted with 4 μg/kg MALP-2 i.p simultaneously to cecal ligation and puncture (CLP). All animals underwent CLP for induction of polymicrobial sepsis.
Peritoneal macrophages were isolated by lavage of the peritoneal cavity with 3×5 ml PBS containing 10 IU/ml heparin (Ratiopharm) 24 hours after CLP. Thereafter, cells were washed once with PBS and centrifuged at 400×g for 15 minutes at 4° C. The pellet was resuspended in 5 ml RPMI (Biochrom) containing 10% FCS and antibiotics (50 U/ml penicillin, 50 μg/ml streptomycin, Invitrogen; 2.5 μg/ml Amphotericin B, Biochrom). 106 cells were plated in a 24-well plate and incubated for 24 hours at 37° C., 95% humidity, and 5% CO2. At the end of the incubation period, the supernatants were removed and stored at −80° C. until analysis was performed.
Cytokine and chemokines in plasma and cell culture supernatant were measured with Multiplex and Simplex Kits according to manufacturer's instructions (BenderMed Systems, Vienna, Austria).

[3] = test system: sepsis, septic shock and MODS; settings: patients with sepsis; cited from earlier work

Substance | total mortality ([1]; 4 μg/kg BW i.p. simultaneously to CLP, control 62.5%, p=0.031) [%] | mortality ([1]; MALP-2 i.p. 6 hours following CLP, p=0.047 vs vehicle) [%] | activity rates (activity score, table 1) ([2]; 24 to 72 hours following CLP, p<0.05) | activity rates (activity score, table 1) ([2]; after 96 hours) | protection against sepsis-related mortality (sepsis-related mortality) | IL-6, IL-10, TNF-α, MCP-1, MCP-3 or GM-CSF of peritoneal macrophages (peritoneal macrophages) | reduction of death of affected patients [3] [%]
Macrophage-activating lipopeptide-2 (GNNDESNISFKEK; not fully specified) [MALP-2] | 12.5 | 22.2 | increased | comparable between both groups | partial protection | No differences | 
activated protein C |  |  |  |  |  |  | 6.1
